# Laboratory results from PMC8481502, “Bovine NK-lysin peptides exert potent antimicrobial activity against multidrug-resistant Salmonella outbreak isolates” (Scientific Reports, 2021).
# Peptide text beside a SMILES is read from it.
# Columns and labels:
# [1] = test system: MDR Salmonella enterica serovar I 4,[5],12:i:- strain USDA15WA-1 (SX238); assay: Growth curve assay (automated reader, OD600) with isolate SX238; type: cell-based; conditions: for time at which bacteria recovered and grew after initial inhibition: SX238, LB broth; for growth inhibition activity on SX238 at highest tested concentration: up to 20 µM peptide, 24 h growth curve
# Method: (§1) Overnight cultures of a MDR Salmonella outbreak isolate (SX238) and one non-MDR Salmonella isolate (SB377) were diluted 1:1000 in LB broth to obtain approximately 1 × 10^6 colony forming units per milliliter (CFU/mL). One hundred microliters of each diluted culture were transferred into honeycomb® 100-well plates (~ 1 × 10^5 CFU/well) (Growth Curves USA, Piscataway, NJ). Bovine NK-lysin peptides (NK1, NK2A, NK2B, and NK2C) were added at the final peptide concentrations of 20, 10, 5, 3.5, 2 µM in PBS (total volume = 20 µL) with a final bacterial-peptide volume of 120 µL/well. The plates were covered with lids and placed in an automated growth curve reader (Bioscreen C; Growth Curves USA, Piscataway, NJ) which was programmed for continuous shaking at 37 °C, and optical density readings at 600 nm (OD600) were recorded every hour for 24 h. […] The optical density data were analyzed, and growth curve graphs for each isolate were generated using MS Excel. […] Twenty-four-hour growth curve assays for Salmonella isolate SX238 were repeated at different bacterial CFU (~ 1 × 10^5, 1 × 10^6, 1 × 10^7, and 1 × 10^8 CFU/mL) with NK2A (5 µM and 10 µM). Sc-NK2A was included as a control for the assay.
# [2] = test system: Salmonella enterica serovar Typhimurium isolate UK-1 (SB377, non-MDR); assay: Growth curve assay (automated reader, OD600) with isolate SB377; type: cell-based; conditions: for time at which bacteria recovered and grew after initial inhibition: SB377, LB broth; for growth inhibition activity on SB377 at highest tested concentration: up to 20 µM peptide, 24 h growth curve
# Method: as §1
# [3] = test system: Swiss-Webster mice; assay: Mouse study of in vivo cytotoxic effects; conditions: single intraperitoneal dose 100 µg (~ 4 mg/kg) in PBS, female Swiss-Webster mice, 5 per cage, 2-week observation
# Method: To determine whether NK-lysin peptides show in vivo cytotoxic effects, a mouse study was conducted. Briefly, thirty 5–6 weeks old female Swiss-Webster mice (Envigo, Indianapolis, IN) were housed in groups in six individual cages (5 mice per cage) in ABSL2 facilities with ad libitum access to food and water in a 12-h light:dark cycle. After 1 week of acclimation, mice were intraperitoneally injected with a single dose of 100 µg of NK-lysin peptides (NK1, NK2A, NK2B, NK2C, or Sc-NK2A, ~ 4 mg/kg of body weight) in PBS (1 mL). Mice injected with PBS (1 mL) served as a negative control for the study. Mice were daily observed for any signs of toxicity and were euthanized 2 weeks post peptide administration.
# [4] = test system: MDR Salmonella outbreak isolate SX238 cytoplasmic membrane; assay: Propidium iodide (PI) uptake assay; type: cell-based, Salmonella enterica serovar I 4,[5],12:i:-
# Method: The kinetics of NK2A-induced damage to Salmonella cell membranes were evaluated using PI uptake assay as described previously. Briefly, an overnight culture of MDR Salmonella outbreak isolate SX238 was centrifuged, washed with PBS, and resuspended in PBS. Ninety microliters of bacterial suspension was transferred to a 96-well opaque plate (~ 1 × 10^7 CFU/well), mixed with 10 µL of PI (final concentration = 3 µM) and incubated at 37 °C for 5 min. PBS, polymyxin B (2, 4, 25, 50 and 100 µg/mL), NK2A or Sc-NK2A (both at 2 and 5 µM) were added and PI fluorescent intensities in each well was continuously measured (15 s intervals, flex mode) using a FlexStation 3 multi-mode (fluorescent) microplate reader (Molecular Devices LLC., San Jose, CA) for up to 6 h. The excitation and emission wavelengths for PI was set up at 530 nm and 620 nm, respectively.
# [5] = test system: MDR Salmonella enterica serovar Typhimurium DT193 strain 1434 (SX231); assay: Growth curve assay (automated reader, OD600) with isolate SX231; type: cell-based; conditions: 20 µM peptide, LB broth, 24 h growth curve
# [6] = test system: Salmonella SX238; assay: LIVE/DEAD BacLight staining, confocal laser scanning microscopy; type: cell-based, Salmonella enterica serovar I 4,[5],12:i:-; conditions: 5 µM peptide
# Method: The viabilities of bacteria following incubation with NK2A and Sc-NK2A were determined using culture-independent (function of the membrane integrity of the bacteria) staining technique by using LIVE/DEAD™ BacLight™ bacterial viability kit (for microscopy) as described previously. Bacteria in each treatment was visualized using a Nikon A1R + laser scanning confocal microscope (Nikon Instruments, Melville, NY) as described previously. Images were obtained using plan Apo 60 × objective lens (oil) at numerical aperture 1.4. Final figures were prepared using Adobe Photoshop Elements 11.
# [7] = test system: MDR Salmonella enterica serovar Heidelberg (SB395); assay: Growth curve assay (automated reader, OD600) with isolate SB395; type: cell-based; conditions: 20 µM peptide, LB broth, 24 h growth curve
# [8] = test system: Salmonella SX238 outer- and inner-membranes; assay: Transmission electron microscopy of peptide-treated bacteria; type: cell-based, Salmonella enterica serovar I 4,[5],12:i:-; conditions: 20 µM peptide, 1 h at 37 °C, ~1 × 10^7 CFU/well in PBS
# Method: Morphological changes of bacteria following incubation with NK2A and Sc-NK2A peptides were studied by TEM. An overnight culture of Salmonella (isolate SX238) was centrifuged and resuspended in PBS. One hundred microliters of bacterial suspension were placed in a Honeycomb plate (~ 1 × 10^7 CFU/well) and NK2A, Sc-NK2A (20 µM), and PBS were added and incubated at 37 °C with continuous shaking for 1 h. The bacterial suspensions were mixed with an equal volume of 3% glutaraldehyde in 0.1 M cacodylate buffer (pH 7.4) and processed for TEM as described before. Sections were examined with a FEI Tecnai G2 Biotwin (FEI Co., Hillboro, OR) TEM and images were taken with Advanced Microscopy Technologies (AMT Inc., Danvers, […]) imaging camera.
# [9] = test system: Salmonella isolates (MDR and non-MDR); assay: Growth curve assay, statements over all Salmonella isolates; type: cell-based; conditions: 24 h incubation in LB broth, MDR and non-MDR isolates
# Method: as §1
compound,measurement,setting,value
"TVIEEASKVCSKMRLLKGLCKSIMKKFLRT [NK2C, 30-mer peptide corresponding to functional region helices 2-loop-3 of bovine NK-lysin NK2C]",time at which bacteria recovered and grew after initial inhibition,[1]; 10 µM peptide,approximately 7 h
same,time at which bacteria recovered and grew after initial inhibition,[1]; 20 µM peptide,~20 h
same,time at which bacteria recovered and grew after initial inhibition,[2]; 10 µM peptide,approximately 7 h
same,time at which bacteria recovered and grew after initial inhibition,[2]; 20 µM peptide,~20 h
same,signs of toxicity or death,[3],did not show signs of toxicity or death
"VIIHVTSKVCSKMGLWSILCNQMMKKYLNR [NK1, 30-mer peptide corresponding to functional region helices 2-loop-3 of bovine NK-lysin NK1]",growth inhibition activity on SX238 at highest tested concentration,[1]; LB broth,did not show any Salmonella SX238 and SB377 growth inhibition activity
same,growth inhibition activity on SB377 at highest tested concentration,[2]; LB broth,did not show any Salmonella SX238 and SB377 growth inhibition activity
same,signs of toxicity or death,[3],did not show signs of toxicity or death
CC[C@H](C)[C@H](NC(=O)[C@H](CCSC)NC(=O)[C@H](CS)NC(=O)[C@H](CCCNC(=N)N)NC(=O)[C@H](CCC(=O)O)NC(=O)[C@H](CCCCN)NC(=O)[C@H](CCCCN)NC(=O)[C@H](CS)NC(=O)[C@H](CCCCN)NC(=O)[C@H](CO)NC(=O)[C@H](CCCCN)NC(=O)CNC(=O)[C@@H](NC(=O)[C@H](CC(C)C)NC(=O)[C@H](CCCNC(=N)N)NC(=O)[C@@H](NC(=O)[C@@H](NC(=O)[C@H](C)NC(=O)[C@H](CC(C)C)NC(=O)[C@H](CO)NC(=O)[C@H](CC(C)C)NC(=O)[C@H](CO)NC(=O)[C@@H](NC(=O)[C@H](Cc1ccccc1)NC(=O)[C@@H](N)CCSC)C(C)C)[C@@H](C)O)[C@@H](C)CC)[C@@H](C)O)C(=O)N[C@@H](CC(C)C)C(=O)N[C@@H](CCCCN)C(=O)N[C@@H](CCCNC(=N)N)C(=O)N[C@@H](CCCNC(=N)N)C(=O)N[C@H](C(=O)O)C(C)C [Sc-NK2A] (H-MFVSLSLATIRLTGKSKCKKERCMILKRRV-OH; N-terminus and C-terminus assumed),growth inhibition of SX238 at the lowest bacterial concentration,"[1]; 10 µM peptide, 10^4 CFU/well",failed to inhibit bacterial growth
same,growth inhibition activity on SX238 at highest tested concentration,[1]; LB broth,failed to show Salmonella growth inhibition activity
same,PI uptake signal,"[4]; 5 µM peptide, 30 min, ~1 × 10^7 CFU/well in PBS, 3 µM PI",did not show PI uptake signals
same,growth inhibition activity on SB377 at highest tested concentration,[2]; LB broth,failed to show Salmonella growth inhibition activity
same,growth inhibition activity on SX231 at highest tested concentration,[5],failed to show Salmonella growth inhibition activity
same,signs of toxicity or death,[3],did not show signs of toxicity or death
same,live/dead staining result (SYTO 9 / PI),[6],did not have detectable antimicrobial activity
same,growth inhibition activity on SB395 at highest tested concentration,[7],failed to show Salmonella growth inhibition activity
same,ultrastructural changes to bacterial membranes,[8],did not cause detectable damage to the bacterial membranes
polymyxin B [reference compound],PI uptake signal,"[4]; polymyxin B 2-100 µg/mL, 6 h observation",No PI uptake signal was observed
same,PI uptake signal,"[4]; polymyxin B up to 100 µg/mL, 30 min observation",No PI uptake signal was observed
"TVIEAASKVCGKMGPLKGLCKSITKRFLRR [NK2B, 30-mer peptide corresponding to functional region helices 2-loop-3 of bovine NK-lysin NK2B]",concentrations able to inhibit growth of Salmonella during 24 h,[9],3.5 to 5 µM
same,peptide concentration at which growth of SX238 was completely inhibited,"[1]; LB broth, ~1 × 10^5 CFU/well, 37 °C, OD600 every hour for 24 h, tested 2-20 µM, at least three experiments",≥ 5 µM
same,peptide concentration at which growth of SB377 was completely inhibited,"[2]; LB broth, ~1 × 10^5 CFU/well, 37 °C, OD600 every hour for 24 h, tested 2-20 µM",≥ 5 µM
same,signs of toxicity or death,[3],did not show signs of toxicity or death
